Literature values as cited in patent US9925191B2, “Fumarate compounds, pharmaceutical compositions thereof, and methods of use” (priority 2015, dated 2018).

aqueous solubility: poor aqueous solubility
SMILES: COC(=O)/C=C/C(=O)OC [DMF, dimethylfumarate]
